Source: patent publication US20230263822A1, “MODULATION OF FACTOR 11 EXPRESSION” (Ionis Pharmaceuticals, Inc., priority 2008, published 2023)

Columns and labels:
Factor 11 protein = Factor 11 protein in monkey plasma by sandwich ELISA (Example 45); type: in vivo, cynomolgus monkeys; details: escalating dose regimen, plasma ELISA
Description: (§1) Groups, each consisting of two male and three female monkeys, were injected subcutaneously with ISIS 416838, ISIS 416850, ISIS 416858, ISIS 416864, or ISIS 417002 in escalating doses. Antisense oligonucleotide was administered to the monkeys at 5 mg/kg three times per a week for week 1; 5 mg/kg twice per week for weeks 2 and 3; 10 mg/kg three times per week for week 4; 10 mg/kg twice per week for weeks 5 and 6; 25 mg/kg three times per week for week 7; and 25 mg/kg twice per week for weeks 8, 9, 10, 11, and 12. One control group, consisting of two male and three female monkeys, was injected subcutaneously with PBS according to the same dosing regimen. An additional experimental group, consisting of two male and three female monkeys, was injected subcutaneously with ISIS 416850 in a chronic, lower dose regimen. Antisense oligonucleotide was administered to the monkeys at 5 mg/kg three times per week for week 1; 5 mg/kg twice per week for week 2 and 3; 10 mg/kg three times per week for week 4; and 10 mg/kg twice per week for weeks 5 to 12. Body weights were measured weekly. Blood samples were collected 14 days and 5 days before the start of treatment and subsequently once per week for Factor 11 protein activity analysis in plasma, fibrinogen measurement, PT and aPTT measurements, bleeding times, and measurement of various hematologic factors. On day 85, the monkeys were euthanized by exsanguination while under deep anesthesia, and organs harvested for further analysis.
Plasma samples from all monkey groups taken on different days were analyzed by a sandwich-style ELISA assay (Affinity Biologicals Inc.) using an affinity-purified polyclonal anti-Factor 11 antibody as the capture antibody and a peroxidase-conjugated polyclonal anti-Factor 11 antibody as the detecting antibody. Monkey plasma was diluted 1:50 for the assay. Peroxidase activity was expressed by incubation with the substrate o-phenylenediamine. The color produced was quantified using a microplate reader at 490 nm and was considered to be proportional to the concentration of Factor 11 in the samples.
The results are presented in Table 115, expressed as percentage reduction relative to that of the PBS control.

[1] = Liver function, ALT, AST, bilirubin in cynomolgus monkeys (Example 45); type: in vivo; details: plasma, escalating dose regimen
Description: as §1
The ISIS oligonucleotide, ISIS 416850, given with the chronic dose regimen is distinguished from the other oligonucleotides with an asterisk (*).

With “ISIS 416838: MOE gapmer, nucleobases 1018 to 1042 of SEQ ID NO: 1 (Table 6) (antisense GCAACCGGGATGATGAGTGC; MOE gapmer, wing and gap sizes not given here)” the “Inhibition of Factor 11 protein relative to the PBS control” value (Factor 11 protein; day 8) was 3%, the “Inhibition of Factor 11 protein relative to the PBS control” value (Factor 11 protein; day 15) was 4% and the “Inhibition of Factor 11 protein relative to the PBS control” value (Factor 11 protein; day 22) was 5%. For the same substance, the “Inhibition of Factor 11 protein relative to the PBS control” value (Factor 11 protein; day 29) was 8%, the “Inhibition of Factor 11 protein relative to the PBS control” value (Factor 11 protein; day 36) was 11% and the “Inhibition of Factor 11 protein relative to the PBS control” value (Factor 11 protein; day 43) was 5%. For the same substance, the “Inhibition of Factor 11 protein relative to the PBS control” value (Factor 11 protein; day 50) was 8%, the “Inhibition of Factor 11 protein relative to the PBS control” value (Factor 11 protein; day 57) was 10% and the “Inhibition of Factor 11 protein relative to the PBS control” value (Factor 11 protein; day 64) was 11%. The “Inhibition of Factor 11 protein relative to the PBS control” value (Factor 11 protein; day 71) was 12%, the “Inhibition of Factor 11 protein relative to the PBS control” value (Factor 11 protein; day 78) was 10% and the “Inhibition of Factor 11 protein relative to the PBS control” value (Factor 11 protein; day 85) was 10%. The “Inhibition of Factor 11 protein relative to the PBS control” value (Factor 11 protein; day −5) was 0%, the “Inhibition of Factor 11 protein relative to the PBS control” value (Factor 11 protein; day −14) was 0% and the ALT ([1]; day 22) was 36 IU/L. For the same substance, the AST ([1]; day 22) was 39 IU/L, the Bilirubin ([1]; day 22) was 0.17 mg/dL and the ALT ([1]; day 43) was 35 IU/L. It also gave an AST ([1]; day 43) of 32 IU/L, a Bilirubin ([1]; day 43) of 0.17 mg/dL and an ALT ([1]; day 64) of 40 IU/L. The AST ([1]; day 64) was 33 IU/L, the Bilirubin ([1]; day 64) was 0.15 mg/dL and the ALT ([1]; day 85) was 41 IU/L. For the same substance, the AST ([1]; day 85) was 30 IU/L, the Bilirubin ([1]; day 85) was 0.13 mg/dL and the ALT ([1]; day −14) was 76 IU/L. It also gave an AST ([1]; day −14) of 139 IU/L and a Bilirubin ([1]; day −14) of 0.26 mg/dL.

With “ISIS 417002: MOE gapmer, nucleobases 1275 to 1318 of SEQ ID NO: 1 (Table 8) (antisense GGTGCACAGTTTCTGGCAGG; MOE gapmer, wing and gap sizes not given here)” the “Inhibition of Factor 11 protein relative to the PBS control” value (Factor 11 protein; day 8) was 0%, the “Inhibition of Factor 11 protein relative to the PBS control” value (Factor 11 protein; day 15) was 4% and the “Inhibition of Factor 11 protein relative to the PBS control” value (Factor 11 protein; day 22) was 2%. For the same substance, the “Inhibition of Factor 11 protein relative to the PBS control” value (Factor 11 protein; day 29) was 8%, the “Inhibition of Factor 11 protein relative to the PBS control” value (Factor 11 protein; day 36) was 8% and the “Inhibition of Factor 11 protein relative to the PBS control” value (Factor 11 protein; day 43) was 9%. For the same substance, the “Inhibition of Factor 11 protein relative to the PBS control” value (Factor 11 protein; day 50) was 13%, the “Inhibition of Factor 11 protein relative to the PBS control” value (Factor 11 protein; day 57) was 24% and the “Inhibition of Factor 11 protein relative to the PBS control” value (Factor 11 protein; day 64) was 26%. For the same substance, the “Inhibition of Factor 11 protein relative to the PBS control” value (Factor 11 protein; day 71) was 30%, the “Inhibition of Factor 11 protein relative to the PBS control” value (Factor 11 protein; day 78) was 22% and the “Inhibition of Factor 11 protein relative to the PBS control” value (Factor 11 protein; day 85) was 23%. The “Inhibition of Factor 11 protein relative to the PBS control” value (Factor 11 protein; day −5) was 0%, the “Inhibition of Factor 11 protein relative to the PBS control” value (Factor 11 protein; day −14) was 0% and the ALT ([1]; day 22) was 36 IU/L. It also gave an AST ([1]; day 22) of 44 IU/L, a Bilirubin ([1]; day 22) of 0.20 mg/dL and an ALT ([1]; day 43) of 35 IU/L. The AST ([1]; day 43) was 42 IU/L, the Bilirubin ([1]; day 43) was 0.21 mg/dL and the ALT ([1]; day 64) was 42 IU/L. For the same substance, the AST ([1]; day 64) was 37 IU/L, the Bilirubin ([1]; day 64) was 0.14 mg/dL and the ALT ([1]; day 85) was 116 IU/L. It also gave an AST ([1]; day 85) of 50 IU/L, a Bilirubin ([1]; day 85) of 0.12 mg/dL and an ALT ([1]; day −14) of 61 IU/L. The AST ([1]; day −14) was 114 IU/L and the Bilirubin ([1]; day −14) was 0.26 mg/dL.
